From US12344631B2, “C17 polar-substituted heteroaromatic synthetic triterpenoids and methods of use thereof” (REATA PHARMACEUTICALS, INC., priority 2019, dated 2025)

Experiments:
RAW 264.7 cells = assay: Nitric oxide suppression assay (IFNγ-induced NO production); type: cell-based, mouse; details: for IC50: Mus musculus, RAW264.7, RAW 264.7 cells, 2 h pretreatment, 20 ng/mL interferon gamma 24 h, nitrite by Griess, read-out: NO IC50 (nM) (Mean ± SD); for NO IC50 Relative to RTA 402 (fold) (Mean ± SD): average of ratios from replicate experiments, benchmark RTA 402
Description: Tissue Culture. RAW 264.7, a mouse macrophage cell line, was obtained from American Type Culture Collection (Manassas VA) and maintained in the log phase of growth in Roswell Park Memorial Institute Medium 1640 (RPMI 1640) supplemented with 10% heat inactivated fetal bovine serum (FBS) and 1% penicillin-streptomycin. Cells were cultured and maintained in a humidified incubator at 37° C. under 5% CO2. Cells were sub-cultured every 3 days. […] All cell culture supplies were obtained from Life Technologies (Grand Island, NY) and VWR (Radnor, PA). Nitric Oxide Suppression Assay. RAW 264.7 cells were plated 1 day in advance of experimental treatments at a concentration of 30,000 cells per well onto Falcon-96 well clear bottom plates (Corning, NY) in a total volume of 200 μL per well using RPMI 1640 supplemented with 0.5% fetal bovine serum and 1% penicillin-streptomycin. The next day, cells were pretreated with compounds serially diluted from 1000× stocks. All compounds were dissolved in dimethyl sulfoxide (DMSO) at 10 mM stock solutions. Compounds were subsequently diluted in DMSO and RPMI 1640. Each well received a final concentration of 0.1% DMSO. Cells were pretreated for 2 hours and incubation at 37° C., followed by treatment with 20 ng/mL of interferon gamma (R&D Systems, Minneapolis, MN) per well for 24 hours. […] Afterwards, 50 μL of cell culture supernatant was transferred from each well into a new Falcon-96 well clear bottom plate. […] Afterwards, air bubbles were removed using ethanol vapor and absorbance was measured using a Spectramax M2e plate reader with a wavelength set to 525 nm. Viability was assessed using WST-1 cell proliferation reagent from Roche (Basel, Switzerland). After media was removed for the Nitric Oxide suppression assay, 15 μL of WST-1 reagent was added to each well of cells. Plates were briefly mixed on an orbital shaker and the cells were incubated at 37° C. for 30 minutes. Absorbance was measured using a Spectramax M2e plate reader with wavelengths set to 440 nm and 700 nm. For the ability of compounds to suppress the increase in nitric oxide release caused by interferon gamma, the absolute amount of nitrite that was produced in each well was extrapolated from the nitrite standards using a linear regression fit. All values were then normalized to the DMSO-interferon gamma treated wells and plotted as percent nitric oxide. IC50 values were calculated with a dependence on WST1 viability using Excel and/or GraphPad Prism (San Diego, CA).

[1] = system: AML-12 hepatocyte cell line; assay: Glutathione assay (total glutathione, GSH-Glo); type: cell-based, mouse; details: for EC50: Mus musculus, AML12, AML-12 cells, 24 hours, total glutathione, read-out: GSH EC50 (nM) (Mean ± SD); for GSH EC50 Relative to RTA 402 (fold) (Mean ± SD): benchmark RTA 402
Description: The effect of compound treatment on total glutathione levels was evaluated in the mouse AML-12 hepatocyte cell line. Glutathione—a tripeptide consisting of cysteine, glutamate, and glycine—is the major thiol-containing protein within the cell and regulates cellular redox balance. Glutathione also plays important roles in detoxification, protein glutathionylation, and iron-sulfur cluster biogenesis (Bachhawat and Yadav, 2018). Nrf2 regulates the expression of many genes involved in glutathione synthesis and metabolism, including both subunits of glutamate cysteine ligase (GCL), the enzyme that catalyzes the rate limiting step of glutathione biosynthesis (Thimmulappa et al., 2002). […] The next day, cells were treated with vehicle (DMSO) or test compound (0.03 nM to 1000 nM). Each well received a final concentration of 0.1% DMSO. Cells were incubated at 37° C., 5% CO2 for 24 hours. Total glutathione concentrations were measured using the GSH-Glo Glutathione Assay kit (Promega) according to the manufacturer's instructions. Briefly, a standard curve was prepared by serially diluting the provided glutathione solution. […] After a 30-minute incubation at room temperature, 100 μL of Luciferin detection reagent was added to all sample and standard wells and incubated for 15 minutes. Luminescence was measured using a PHERAstar plate reader. The EC50 value was determined using Excel and GraphPad Prism software. The basal concentration of glutathione was set to 0% and the highest concentration of glutathione produced following treatment with a test compound was set to 100% and a dose-response curve was generated. The dose-response curve was fit using nonlinear regression analysis and used to extrapolate the EC50 value.

[2] = system: AREc32 reporter cell line (antioxidant response element of rat Gsta2, Nrf2 target gene); assay: AREc32 luciferase reporter activation; type: cell-based, human; details: for AREc32 EC2X Relative to RTA 402 (fold) (Mean ± SD): average of ratios from replicate experiments, benchmark RTA 402; for AREc32 Relative to CC in Same Experiment (Mean ± SD): average of ratios from experiments with direct comparisons; for EC (2-fold): human, Arec32, 19 h, concentration increasing luminescence signal 2-fold above vehicle, nineteen hours, read-out: AREc32 EC2X (nM) (Mean ± SD)
Description: […] The effect of several compounds disclosed herein on luciferase reporter activation was assessed in the AREc32 reporter cell line (see Table 10 and Table 11). This cell line is derived from human breast carcinoma MCF-7 cells and is stably transfected with a luciferase reporter gene under the transcriptional control of eight copies of the antioxidant response element from the rat Gsta2 gene, an Nrf2 target gene ([…] et al., 1990). […] Twenty-four hours after plating, cells were treated with vehicle (DMSO) or test compounds at concentrations ranging from 0.03 to 1000 nM for nineteen hours. Media was removed and 100 μL of 1:1 mixture of the One-Glo Luciferase assay reagent and culture medium was added to each well. After incubation for 5 min at room temperature, the luminescence signal was measured on a PHERAstar plate reader. The EC2X value was determined using Excel and GraphPad Prism software. The fold increase in luminescence signal for cells treated with each concentration of compound relative to cells treated with vehicle was determined and a dose-response curve was generated. The dose-response curve was fit using nonlinear regression analysis and used to extrapolate the EC2X value.

SMILES | IC50 (RAW 264.7 cells) | NO IC50 Relative to RTA 402 (fold) (Mean ± SD) (RAW 264.7 cells) | EC50 [1] | GSH EC50 Relative to RTA 402 (fold) (Mean ± SD) [1] | AREc32 EC2X Relative to RTA 402 (fold) (Mean ± SD) [2] | AREc32 Relative to CC in Same Experiment (Mean ± SD) ([2]; comparison compound CC3) | EC (2-fold) [2] | AREc32 Relative to CC in Same Experiment (Mean ± SD) ([2]; comparison compound CC2) | AREc32 Relative to CC in Same Experiment (Mean ± SD) ([2]; comparison compound CC1)
CCc1noc([C@]23CCC(C)(C)C[C@H]2[C@H]2C(=O)C=C4[C@@]5(C)C=C(C#N)C(=O)[C@@H](C)[C@@H]5CC[C@@]4(C)[C@]2(C)CC3)n1 [Compound T37] | 3.45 ± 1.87 nM | 0.76 ± 0.12 fold | 1.69 ± 0.19 nM | 0.88 ± 0.13 fold | 0.69 ± 0.06 fold | 1.58 ± 0.16 | 10.3 ± 1.35 nM | – | –
Cc1nc([C@]23CCC(C)(C)C[C@H]2[C@H]2C(=O)C=C4[C@@]5(C)C=C(C#N)C(=O)C(C)(C)[C@@H]5CC[C@@]4(C)[C@]2(C)CC3)no1 [Compound T20] | 3.79 nM | 1.30 ± 0.26 fold | 1.66 ± 0.66 nM | 0.96 ± 0.15 fold | 1.50 ± 0.18 fold | – | 21.5 ± 2.85 nM | – | –
CC1(C)CC[C@]2(c3nnn(CCF)n3)CC[C@]3(C)[C@H](C(=O)C=C4[C@@]5(C)C=C(C#N)C(=O)C(C)(C)[C@@H]5CC[C@]43C)[C@@H]2C1 [Compound T10] | 2.2 ± 0.2 nM | 1.62 ± 0.16 fold | 1.45 ± 0.17 nM | 1.14 ± 0.03 fold | 2.41 ± 0.98 fold | – | 28.4 ± 9.42 nM | – | –
CC1(C)CC[C@]2(c3nc(CCO)no3)CC[C@]3(C)[C@H](C(=O)C=C4[C@@]5(C)C=C(C#N)C(=O)C(C)(C)[C@@H]5CC[C@]43C)[C@@H]2C1 [Compound T13] | 0.56 nM | 0.22 ± 0.07 fold | 2.04 ± 1.94 nM | 0.55 ± 0.33 fold | 0.37 ± 0.04 fold | – | 3.53 ± 0.98 nM | 0.44 ± 0.07 | –
CC1(C)CC[C@]2(c3nnc(C(F)F)o3)CC[C@]3(C)[C@H](C(=O)C=C4[C@@]5(C)C=C(C#N)C(=O)C(C)(C)[C@@H]5CC[C@]43C)[C@@H]2C1 [Compound T44] | 4.24 ± 2.23 nM | 1.24 ± 0.04 fold | 2.05 ± 0.64 nM | 1.04 ± 0.06 fold | 0.57 ± 0.12 fold | – | 8.62 ± 0.45 nM | – | 0.91 ± 0.21
CC1(C)CC[C@]2(c3nnn(CCO)n3)CC[C@]3(C)[C@H](C(=O)C=C4[C@@]5(C)C=C(C#N)C(=O)C(C)(C)[C@@H]5CC[C@]43C)[C@@H]2C1 [Compound T7] | 1.13 ± 0.18 nM | 0.43 ± 0.13 fold | 2.87 ± 3.17 nM | 0.80 ± 0.59 fold | 1.10 ± 0.33 fold | – | 10.5 ± 3.66 nM | – | –
CCc1nnc([C@]23CCC(C)(C)C[C@H]2[C@H]2C(=O)C=C4[C@@]5(C)C=C(C#N)C(=O)C(C)(C)[C@@H]5CC[C@@]4(C)[C@]2(C)CC3)o1 [Compound T46] | 5.44 ± 2.81 nM | 1.60 ± 0.29 fold | 2.39 ± 0.29 nM | 1.24 ± 0.17 fold | 1.60 ± 0.44 fold | – | 24 ± 1.5 nM | – | –
CC1(C)CC[C@]2(c3noc(CCN)n3)CC[C@]3(C)[C@H](C(=O)C=C4[C@@]5(C)C=C(C#N)C(=O)C(C)(C)[C@@H]5CC[C@]43C)[C@@H]2C1 [Compound T3] | 2.6 nM | 0.69 ± 0.22 fold | 1.45 ± 0.28 nM | 0.54 ± 0.06 fold | 0.91 ± 0.29 fold | – | 9.21 ± 3.66 nM | – | –
CC1(C)CC[C@]2(c3nc(C(F)(F)F)no3)CC[C@]3(C)[C@H](C(=O)C=C4[C@@]5(C)C=C(C#N)C(=O)C(C)(C)[C@@H]5CC[C@]43C)[C@@H]2C1 [Compound T22] | 23.9 nM | 7.71 ± 2.33 fold | 17.6 ± 0.59 nM | 8.72 ± 1.98 fold | 3.45 ± 0.69 fold | – | 54.6 ± 8.83 nM | – | –
C[C@@H]1C(=O)C(C#N)=C[C@]2(C)C3=CC(=O)[C@@H]4[C@@H]5CC(C)(C)CC[C@]5(c5nc(C(F)(F)F)no5)CC[C@@]4(C)[C@]3(C)CC[C@@H]12 [Compound T36] | 17.8 ± 9.89 nM | 3.95 ± 0.84 fold | 10.4 ± 1.62 nM | 5.40 ± 0.54 fold | 2.25 ± 0.31 fold | – | 33.7 ± 6.99 nM | – | –
CC1(C)CC[C@]2(c3noc(CCO)n3)CC[C@]3(C)[C@H](C(=O)C=C4[C@@]5(C)C=C(C#N)C(=O)C(C)(C)[C@@H]5CC[C@]43C)[C@@H]2C1 [Compound T5] | 1.57 nM | 0.42 ± 0.15 fold | 1.77 ± 0.98 nM | 0.65 ± 0.32 fold | 1.16 ± 0.19 fold | – | 11.7 ± 2.8 nM | – | –
CC1(C)CC[C@]2(c3noc(C(F)F)n3)CC[C@]3(C)[C@H](C(=O)C=C4[C@@]5(C)C=C(C#N)C(=O)C(C)(C)[C@@H]5CC[C@]43C)[C@@H]2C1 [Compound T41] | 9.84 ± 3.52 nM | 2.79 ± 0.64 fold | 4.85 ± 0.36 nM | 2.38 ± 0.29 fold | 1.52 ± 0.19 fold | – | 24.2 ± 3.36 nM | – | –
CC1(C)CC[C@]2(c3nc(CCN)no3)CC[C@]3(C)[C@H](C(=O)C=C4[C@@]5(C)C=C(C#N)C(=O)C(C)(C)[C@@H]5CC[C@]43C)[C@@H]2C1 [Compound T16] | 1.26 ± 0.12 nM | 0.94 ± 0.19 fold | 0.58 ± 0.04 nM | 0.46 ± 0.09 fold | 0.30 ± 0.00 fold | – | 3.56 ± 0.31 nM | – | –
